Results reported in patent publication US20050095196A1, “Method for using potassium channel agonists for delivering a medicant to an abnormal brain region and/or a malignant tumor” (priority 2003, published 2005).
Converted amounts (≈) assume the structure as drawn. “Also recorded” adds a separate entry of the source. Where a name gives a salt, the structure may show the parent alone.

Legend:
[1] = system: blood-tumor barrier of RG2 glioma tissue; assay: Unidirectional transfer constant Ki for [14C]AIB across the blood-tumor barrier, quantitative autoradiography after intracarotid infusion; format: in vivo, Wistar rats; conditions: for unidirectional transport constant Ki for [14C]α-aminoisobutyric acid (AIB) across the blood-tumor barrier: RG2 glioma-bearing Wistar rats, intracarotid 7.5 μg kg^−1 min^−1 for 15 minutes
From the text: Malignant Cell Line and Tumor Implantation. A rat glioma cell line, RG2, was used for implantation of experimental brain tumors in Wistar rats. The techniques for RG2 cell propagation and maintenance in tissue culture have been described (Sugita, M. and Black, K. L., Cyclic GMP-specific phosphodiesterase inhibition and intracarotid bradykinin infusion enhances permeability into brain tumors, Cancer Res. 58(5):914-20 [1998]; Inamura et al. [1994]; Nakano, S. et al., Increased brain tumor microvessel permeability after intracarotid bradykinin infusion is mediated by nitric oxide, Cancer Res. 56(17):4027-31 [1996]). Briefly, RG2 cells derived from a rat glioma are kept frozen until use, then are thawed and maintained in a monolayer culture in F12 medium with 10% calf serum.
The Wistar rats (approximately 140-160 g body weight) were anesthetized with intra-peritoneal ketarnine (50 mg/kg), and glial cells (1×10^5) were implanted into the right hemisphere, but not the contralateral hemisphere, by intracerebral injection suspended in 5 μL F12 medium,(1-2% methylcellulose) by.a Hamilton syringe. The implantation coordinates were 3-mm lateral to the bregrna and 4.5 mm deep to the dural surface.
Intracarotid Infusion of Potassium Channel Activators. Seven days after implantation of RG2 cells, the rats were anesthetized as described above and prepared for permeability studies. Animals were infused with either NS-1619 (a selective large conductance Ca^2+- activated K^+ channel activator; […]; 5% (v/v) ethanol. Ethanol (25% [v/v]) was used to dissolve. the potassium channel agonists before.dilution in PBS. For blood volume studies, 5 and 14 minutes after the start of the intracarotid infusion of potassium channel agonist compounds, [^14C] Dextran (100 μCi/kg; Dupont-New England Nuclear Co., Boston, Mass.) was injected as an intravenous bolus and maintained for 1 minute and 10 minutes to obtain two different time points. For regional permeability studies, 5 minutes after the start of the intracarotid infusion of vasoactive compounds, 100 μCi/kg of [^14C]α-aminoisobutyric acid (Dupont-New England Nuclear Colo., Boston, Mass.) was injected as an intravenous bolus. A peristaltic withdrawal pump was used to withdraw femoral arterial blood at a constant rate of 0.083 mL/min immediately after the injection of the tracer to determine serum radioactivity. Fifteen minutes after the intracarotid infusion, rat decapitated and the brain rapidly removed and frozen for quantitative autoradiography.
Unidirectional Transport Constant (Ki). The unidirectional transfer constant Ki for [^14C]α-aminoisobutyric acid was measured in normal tissue and tumor tissue as an indicator of permeability across the blood-tumor and blood-brain barriers. Quantitative autbradiography was. used to obtain Ki values (μL g^−1min^−1). The initial rate for blood-to-brain transfer was calculated using a previously described equation. (Ohno, K, et al., Lower limits of cerebrovascular permeability to nonelectrolytes in the conscious rat, Am. J. Physiol. 235(3):H299-307, [1978]; Inamura, T., et al., Bradykinin selectively opens blood-tumor barrier in experimental brain rumors, J. Cereb. Flow Metab. 14(5):862-70 [1994]). Quantitative data were analyzed using, two group t-test and two-group Fisher's-exact test of equal proportions or equal means (equal numbers) at 90% power requires a minimum of 6 animals in each group to achieve statistical significance. Multiple treatment groups were compared with control group by ANOVA and P values determined by post-hoc Bonferroni test.
Dose-dependence studies. NS-1619 was dissolved in 25% ethanol and diluted with PBS to obtain various concentrations for infusion. […]

[2] = Arterial blood pressure monitored during intracarotid infusion; format: in vivo; conditions: rats; higher doses (100 and 110 μg/kg/min)
Description: Dose-dependence studies. NS-1619 was dissolved in 25% ethanol and diluted with PBS to obtain various concentrations for infusion. NS-1619 was administered by intracarotid infusion (dose rates: 0, 13, 26.5, 53, 80, 100 and 110 μg kg^−1 min^−1; all at 53.3. μL/min) to RG2 glioma-bearing rats to determine a dose that produces increased permeability (Ki) of (^14C]-AIB, which was administered intravenously. Ki determined as described above. Physiological parameters were monitored during the experiments.

[3] = cited from earlier work
brain tumor capillaries = conditions: intracarotid infusion, cited from earlier work

Molecule: O=c1[nH]c2cc(C(F)(F)F)ccc2n1-c1cc(C(F)(F)F)ccc1O [NS-1619, 1,3-dihydro-1-[2-hydroxy-5-(trifluoromethyl)phenyl]-5-(trifluoromethyl)-2H-benzimidazol-2-one]
- Ki for [14C]AIB in RG2 tumor, NS-1619 26.5 μg kg^−1 min^−1 vs PBS with or without 5% ethanol ([1]; 15 minutes, n=8, P<0.001): Increase of Ki
- unidirectional transport constant Ki for [14C]α-aminoisobutyric acid (AIB) across the blood-tumor barrier [1]: significantly increased
- dose-response of Ki for [14C]AIB in RG2 glioma capillaries ([1]; intracarotid dose rates 0, 13, 26.5, 53, 80, 100 and 110 μg kg^−1 min^−1): increasing the dose of NS-1619 results in an increase
- arterial blood pressure [2]: a significant drop in the arterial blood pressure
- solubility in water [3]: not easily dissolved in water

Molecule: CC(N/C(=N\C#N)Nc1ccncc1)C(C)(C)C (racemic) [pinacidil, (±)-N-cyano-N′-4-pyridinyl-N″-(1,2,2-trimethylpropyl)-guanidine]
- solubility in ethanol ([3]; ethanol): 14 mg/mL (≈ 57.1 mM)
- solubility in water [3]: insoluble in water; also recorded: not easily dissolved in water

Molecule: CCCCC/C=C\C\C=C/C=C/C=C/[C@@H](SC[C@H](NC(=O)CC[C@H](N)C(=O)O)C(=O)NCC(=O)O)[C@@H](O)CCCC(=O)O [LTC4, leukotriene C4]
- permeability in normal brain capillaries (brain tumor capillaries): without affecting the permeability
- permeability in brain tumor capillaries (brain tumor capillaries; effect limited to small molecules): selectively increases the permeability

Molecule: IBTX: specific KCa channel inhibitor, iberiotoxin (QFTDVDCSVSKECWSVCKDLFGVDRGKCMGKKCRCYQ; Iberiotoxin; UniProt P24663 1-37, looked up)
- brain-tumor barrier permeability of abnormal capillaries, IBTX alone ([1]; IBTX 2.3 μg kg^−1 min^−1, 15 minutes, n=3): did not affect
- effect of IBTX co-infusion on NS-1619-induced increase of permeability (Ki) ([1]; IBTX 2.3 μg kg^−1 min^−1 with NS-1619 26.5 μg kg^−1 min^−1, n=3, P<0.001 vs NS-1619-treated group): decreased NS-1619-induced increase of permeability

Molecule: CC1=NS(=O)(=O)c2cc(Cl)ccc2N1 [diazoxide]
- solubility in water [3]: not easily dissolved in water

Molecule: Nc1cc(N2CCCCC2)nc(N)[n+]1OS(=O)(=O)[O-] [minoxidil sulfate]
- unidirectional transport constant Ki for [14C]α-aminoisobutyric acid (AIB) across the blood-tumor barrier [1]: significantly increased
- solubility in water [3]: not easily dissolved in water
